Measurements as given in ChEMBL document CHEMBL1149449 (Bioorg Med Chem Lett, 2006).
pIC50: −log10 of the molar value.

Experiments:
[1] = system: Human immunodeficiency virus 1; experiment: Antiviral activity in cells infected with wild-type HIV1 4X mutant in presence of NHS; type: functional; details: Human immunodeficiency virus 1, 4X; read-out: CIC95
[2] = system: Human immunodeficiency virus 1; experiment: Antiviral activity in cells infected with wild-type HIV1 1002-60C mutant; type: functional; details: Human immunodeficiency virus 1, 1002-60C; read-out: CIC95
[3] = system: Human immunodeficiency virus 1; experiment: Antiviral activity in cells infected with wild-type HIV1 4X mutant; type: functional; details: Human immunodeficiency virus 1, 4X; read-out: CIC95
[4] = system: Human immunodeficiency virus 1; experiment: Antiviral activity in cells infected with wild-type HIV1 H93B in presence of FBS; type: functional; details: Human immunodeficiency virus 1, H93B; read-out: CIC95
[5] = system: Human immunodeficiency virus 1; experiment: Antiviral activity in cells infected with wild-type HIV1 1026-60C mutant; type: functional; details: Human immunodeficiency virus 1, 1026-60C; read-out: CIC95
[6] = system: Human immunodeficiency virus 1; experiment: Antiviral activity in cells infected with wild-type HIV1; type: functional; details: read-out: CIC95
[7] = system: Human immunodeficiency virus 1; experiment: Antiviral activity in cells infected with wild-type HIV1 NL4-3 in presence of NHS; type: functional; details: Human immunodeficiency virus 1, NL4-3; read-out: CIC95
[8] = system: Human immunodeficiency virus 1; experiment: Antiviral activity in cells infected with wild-type HIV1 1026-60C mutant in presence of NHS; type: functional; details: Human immunodeficiency virus 1, 1026-60C; read-out: CIC95
[9] = system: Human immunodeficiency virus 1; experiment: Antiviral activity in cells infected with wild-type HIV1 1002-60C mutant in presence of NHS; type: functional; details: Human immunodeficiency virus 1, 1002-60C; read-out: CIC95
[10] = system: Human immunodeficiency virus 1; experiment: Antiviral activity in cells infected with wild-type HIV1 H93B in presence of NHS; type: functional; details: Human immunodeficiency virus 1, H93B; read-out: CIC95
[11] = system: Human immunodeficiency virus 1; experiment: Antiviral activity in cells infected with wild-type HIV1 NL4-3 in presence of FBS; type: functional; details: Human immunodeficiency virus 1, NL4-3; read-out: CIC95
[12] = biological target: Human immunodeficiency virus type 1 protease (Human immunodeficiency virus 1) (UniProt Q72874); experiment: Ratio of inhibitory effect against HIV1 protease in cellular over isolated enzyme assay; type: functional
[13] = biological target: Human immunodeficiency virus type 1 protease (Human immunodeficiency virus 1, UniProt Q72874); experiment: Inhibitory activity against isolated wild-type HIV1 protease

SMILES | IC95 [1] [nM] | IC95 [2] [nM] | IC95 [3] [nM] | IC95 [4] [nM] | IC95 [5] [nM] | IC95 [6] [nM] | IC95 [7] [nM] | IC95 [8] [nM] | IC95 [9] [nM] | IC95 [10] [nM] | IC95 [11] [nM] | Ratio CIC95/IC50 [12] | pIC50 [13]
NC(=O)C[C@H]1CC(C2=C(O)[C@](Cc3ccccc3)(C[C@H](O)[C@H](Cc3ccccc3)NC(=O)O[C@H]3CCOC3)N=C2)c2ccccc21 (some centres undefined) | 1250 | 1250 | 625 | 1250 | 312 | 781 | 625 | 625 | 2500 | 1250 | 312 | – | –
CC(C)(C)NC(=O)[C@@H]1CN(Cc2cccnc2)CCN1C[C@@H](O)C[C@@H](Cc1ccccc1)C(=O)N[C@H]1c2ccccc2C[C@H]1O | 100 | 400 | 100 | 50 | 400 | 25 | 50 | 400 | 400 | 25 | 50 | – | –
CC(C)(C)OC(=O)N[C@@H](Cc1ccccc1)[C@@H](O)C[C@]1(Cc2ccccc2)N=CC(C2c3ccccc3[C@H]3NC(=O)OC23)=C1O (some centres undefined) | 5000 | 2500 | 2500 | 156 | 625 | 200 | 625 | 1250 | 10000 | 312 | 156 | 80 | 8.60
O=C(N[C@@H](Cc1ccccc1)[C@@H](O)C[C@]1(Cc2ccccc2)N=CC([C@H]2c3ccccc3C[C@H]2O)=C1O)O[C@H]1CCOC1 | 1250 | 1250 | 625 | 156 | 156 | 100 | 156 | 312 | 1250 | 156 | 78 | 50 | 8.70
O=C1N[C@@H]2c3ccccc3C(C3=C(O)[C@](Cc4ccccc4)(C[C@H](O)[C@H](Cc4ccccc4)NC(=O)O[C@H]4CCOC4)N=C3)C2O1 (some centres undefined) | 312 | 1250 | 156 | 625 | 312 | 400 | 625 | 312 | 1250 | 625 | 625 | 909 | 9.36
CC(C)(C)CC(=O)N[C@@H](Cc1ccccc1)[C@@H](O)C[C@]1(Cc2ccccc2)N=CC(C2C[C@H](CC(N)=O)c3ccccc32)=C1O (some centres undefined) | – | – | – | – | – | 12500 | – | – | – | – | – | – | < 6.60
O=C(N[C@@H](Cc1ccccc1)[C@@H](O)C[C@]1(Cc2ccccc2)N=CC([C@@H]2CNC(=O)c3ccccc32)=C1O)O[C@H]1CCOC1 | – | – | – | – | – | 781 | – | – | – | – | – | 137 | 8.24
NC(=O)O[C@@H]1Cc2ccccc2[C@@H]1C1=C(O)[C@](Cc2ccccc2)(C[C@H](O)[C@H](Cc2ccccc2)NC(=O)O[C@H]2CCOC2)N=C1 | – | – | – | – | – | 250 | – | – | – | – | – | 125 | 8.70
CC(C)(C)OC(=O)N[C@@H](Cc1ccccc1)[C@@H](O)C[C@]1(Cc2ccccc2)N=CC(C2C[C@H](CC(N)=O)c3ccccc32)=C1O (some centres undefined) | – | – | – | – | – | > 400 | – | – | – | – | – | – | 7.69
CC(C)(C)CC(=O)N[C@@H](Cc1ccccc1)[C@@H](O)C[C@]1(Cc2ccccc2)N=CC(C2c3ccccc3[C@H]3NC(=O)OC23)=C1O (some centres undefined) | – | – | – | – | – | 3120 | – | – | – | – | – | 32.5 | 7.02
